From patent EP2815749A1, “Solid form of 4-amino-2-(2,6-dioxopiperidine-3-yl)isoindoline-1,3-dione having specified X-ray diffraction pattern” (IP Gesellschaft für Management mbH, priority 2013, dated 2014)
Where a name gives a salt, the structure may show the parent alone. Read-outs that look alike come from different tables or passages of the source.

Tests used:
[1] = Stability in water slurry; type: physicochemical; settings: room temperature, after two days
Experimental: (§1) Other Crystalline Forms of Example 1: Form P22C: prepared by heating Form HI.5-1 ({drug6b}) at 60°C for 2 hours or at 75°C for 5 minutes. […] Form P33 ({drug6c}): Form HI.5-1 ({drug6b}) converted to Form P33 ({drug6c}) between 50°C and 75°C in variable temperature PXRD experiment. […] Form P35: Prepared from slurry of Form HI.5-1 ({drug6b}) in dry MeOH under molecular sieves (7% RH). Converted to Form P33 ({drug6c}) when dried at 60°C. Stability in Water Slurry: An aqueous slurry of Example 1 was prepared and stored at room temperature. […] The hemisulfate salt of Compound (VI) has the surprising advantage of providing a salt that is physically stable and chemically stable compared to other salts of Compound (VI). Further, the hemisulfate salt had the surprising advantage of being provided in a stable crystalline form, Form HI.5-1 ({drug6b}).

[2] = Solid state stability study of Example 1 (hemisulfate salt, Form HI.5-1); type: physicochemical
Experimental: Stability Study: The solid state stability of Example lwas tested by exposing samples to various temperature and relative humidity conditions for periods of 1, 2, and 4 weeks. […] Table 4: Solid State Stability of Hemisulfate Salt, Form HI.5-1 ({drug6b}): […]

[3] = In vivo pharmacokinetics of Compound (VI) free base and hemisulfate salt capsules; settings: dogs; 150 mg capsule oral; famotidine pretreatment
Experimental: An aliquot of 0.050 mL of dog EDTA plasma was used for the assay. […] A 450 µï^ portion of the organic layer was removed and evaporated to dryness. The residue was reconstituted in 300 µl, of the reconstitution solution (30% acetonitrile in 10 mM NH40Ac with 0.01% acetic acid). All liquid transfer steps were performed using a Perkin Elmer JANUS Mini® liquid handler except for the addition of the internal standard solution. A 5 µï^ aliquot of the extracted sample was injected to uHPLC-MS/MS system. The uHPLC was performed on a LEAP 4X Ultra uHPLC system with LEAP HTC PAL autosampler. Mobile phase A contained 10 mM NH4OAc and 0.01% acetic acid in ACN/water (10:90), and mobile phase B contained 10 mM NH4OAc and 0.01% acetic acid in ACN/water (90: 10). […] The flow rate was 0.6 mL/min and column temperature was maintained at 60°C condition. Detection was accomplished using an AB Sciex Triple Quad 5500 mass spectrometer in positive ESI with turbo ion spray ionization and using multiple reaction monitoring (MRM) mode. […] Data acquisition and quantification were performed using AB Sciex Analyst® 1.5.1 software.

[4] = Water activity studies between crystalline forms; type: physicochemical
Experimental: as §1

[5] = Moisture sorption isotherm of Example 1; type: physicochemical; settings: 25°C
Source text: Example 1 has moisture sorption weight gains of 0.8 weight % and 2.8 weight % between 25% and 75% relative humidity and 5% and 95% relative humidity, respectively. […] PXRD Peak Positions (degrees 2Θ±0.1):
The hemisulfate salt of Compound (VI) has the surprising advantage of reducing the variability in the bioavailability of Compound (VI) and/or increasing the bioavailability of Compound (VI) to the patient. Based on these in vitro and in vivo data, it is expected that the hemisulfate will provide a significant advantage of consistency in bioavailability among patients over the free form. […] Single Crystal Data (LVL): Data were collected on a Bruker-Nonius CAD4 serial diffractometer. […] Intensities were measured using Cu Ka radiation (λ = 1.5418 A) at a constant temperature with the Θ-2Θ variable scan technique and were corrected only for Lorentz-polarization factors. […] Indexing and processing of the measured intensity data were carried out with the HKL2000 software package (Otwinowski, Z & Minor, W. (1997) in Macromolecular Crystallography, eds. Carter, W.C. Jr. & Sweet, R.M. (Academic, NY), Vol. 276, pp307-326) in the Collect program suite. […] Indexing and processing of the measured intensity data were carried out with the APEX2 software package/program suite (APEX2 Data collection and processing user interface: APEX2 User Manual, v1.27; BRUKER AXS, inc., Madison, WI). […]

[6] = for water uptake at 5 % RH: 25°C
Experimental: (§2) Hygroscopicity: Sorption/desorption isotherms were measured using the VT1100 humidity microbalance (VTI Corporation, Hialeah, FL, USA). Measurements were carried out at 25°C. Samples were dried under N2 flow at 25°C. […] Concentration in supernatant was measured by gravimetry for organic solvents and by HPLC from aqueous solvents and propylene glycol.

[7] = for Stability in water: 2 days at 50°C
Experimental: as §2

[8] = 1440 min
[9] = 25 RH/ 60 °C (first such line, r3), 1 week
[10] = 25 RH/ 60 °C (first such line, r3), 2 weeks
[11] = 25 RH/ 60 °C (first such line, r3), 4 weeks
[12] = 25 RH/ 60 °C (first such line, r3), Initial
[13] = 25 RH/ 60 °C (second such line, r5), 1 week
[14] = 25 RH/ 60 °C (second such line, r5), 2 weeks
[15] = 25 RH/ 60 °C (second such line, r5), 4 weeks
[16] = 25 RH/ 60 °C (third such line, r6), 1 week
[17] = 25 RH/ 60 °C (third such line, r6), 2 weeks
[18] = 25 RH/ 60 °C (third such line, r6), 4 weeks

Structure (SMILES): N[C@@H]1c2cccnc2[C@H](OC(=O)N2CCC(n3c(=O)[nH]c4ncccc43)CC2)CC[C@H]1c1cccc(F)c1F [Example 1, (5S,6S,9R)-5-Amino-6-(2,3-difluorophenyl)-6,7,8,9-tetrahydro-5H-cyclohepta[b]pyridin-9-yl 4-(2-oxo-2,3-dihydro-1H-imidazo[4,5-b]pyridin-1-yl) piperidine-1-carboxylate, Hemisulfate Salt]
- Chemical degradation in aqueous slurry [1]: no significant chemical degradation
- PXRD pattern after aqueous slurry [1]: no change in the PXRD pattern
- % pot. [2, 9]: 94.4%
- % total imp. [2, 9]: 0.27%
- % pot. [2, 10]: 96.8%
- % total imp. [2, 10]: 0.27%
- % pot. [2, 11]: 96.9%
- % total imp. [2, 11]: 0.27%
- % pot. [2, 12]: 98.5%
- % total imp. [2, 12]: 0.27%
- % pot. [2, 13]: 95.1%
- % total imp. [2, 13]: 0.27%
- % pot. [2, 14]: 98.5%
- % total imp. [2, 14]: 0.27%
- % pot. [2, 15]: 97.0%
- % total imp. [2, 15]: 0.27%
- % pot. [2, 16]: 101.6%
- % total imp. [2, 16]: 0.28%
- % pot. [2, 17]: 102.6%
- % total imp. [2, 17]: 0.27%
- % pot. [2, 18]: 110.0%
- % total imp. [2, 18]: 0.27%
- % pot. ([2]; HIL/UV, 1 week): 100.7%
- % total imp. ([2]; HIL/UV, 1 week): 0.27%
- % pot. ([2]; HIL/UV, 2 weeks): 96.9%
- % total imp. ([2]; HIL/UV, 2 weeks): 0.27%
- % pot. ([2]; Refrigerated, 1 week): 98.0%
- % total imp. ([2]; Refrigerated, 1 week): 0.29%
- % pot. ([2]; Refrigerated, 2 weeks): 96.5%
- % total imp. ([2]; Refrigerated, 2 weeks): 0.27%
- % pot. ([2]; Refrigerated, 4 weeks): 105.7%
- % total imp. ([2]; Refrigerated, 4 weeks): 0.27%
- % pot. ([2]; Refrigerated, Initial): 98.5%
- % total imp. ([2]; Refrigerated, Initial): 0.27%
- Solid state stability ([2]; various temperature and relative humidity conditions, up to four weeks of storage): stable
- BA Mean [3]: 34.73%
- Relative stability (water activity) ([4]; versus Form P22C): more stable at > 23% relative humidity
- Relative stability (water activity) ([4]; versus Form P33): more stable at > 23% relative humidity
- moisture sorption weight gain ([5]; between 5% and 95% relative humidity): 2.8 weight %
- moisture sorption weight gain ([5]; between 25% and 75% relative humidity): 0.8 weight %

Structure (SMILES): N#Cc1ccc([C@H]2CCc3cncn32)c(F)c1 [nitrate salt, 4-(R)-(6,7-dihydro-5H-pyrrolo[1,2-c]imidazol-5-yl)-3-fluoro-benzonitrile]
- water uptake at 5 % RH [6]: 0%
- Moisture gain ([6]; r.h. 0%): 0.0%
- Moisture gain ([6]; r.h. 5%): 0.0%
- Moisture gain ([6]; r.h. 25%): 0.1%
- Moisture gain ([6]; r.h. 50%): 0.2%
- Moisture gain ([6]; r.h. 75%): 0.2%
- Moisture gain ([6]; r.h. 85%): 0.2%
- Moisture gain ([6]; r.h. 95%): 0.2%
- Stability in water [7]: stable
- Solubility in water at the 0.1% target concentration ([7]; water): soluble
- solubility ([8]; pH 1, 25°C): > 50 mg/mL

Structure (SMILES): N#Cc1ccc([C@H]2CCc3cncn32)c(F)c1 [phosphate salt, 4-(R)-(6,7-dihydro-5H-pyrrolo[1,2-c]imidazol-5-yl)-3-fluoro-benzonitrile]
- water uptake at 5 % RH [6]: 0%
- Moisture gain ([6]; r.h. 0%): 0.0%
- Moisture gain ([6]; r.h. 5%): 0.0%
- Moisture gain ([6]; r.h. 25%): 0.1%
- Moisture gain ([6]; r.h. 50%): 0.1%
- Moisture gain ([6]; r.h. 75%): 0.2%
- Moisture gain ([6]; r.h. 85%): 0.3%
- Moisture gain ([6]; r.h. 95%): 0.8%
- Stability in water [7]: stable
- solubility ([8]; pH 6.8, 25°C): > 50 mg/mL
